The record followed here is patent US9931444B2, “Polymeric composite materials with antimicrobial and biodegradable properties and uses thereof” (FONDAZIONE ISTITUTO ITALIANO DI TECNOLOGIA, priority 2012, dated 2018).

In one assay the test system is E. Coli. In words: Minimum bactericidal concentration of iodopovidone. The class given is cell-based.
The subject of a further assay is C. albicans. In words: Minimum fungicidal concentration of iodopovidone. It counts as cell-based.

In the assay on E. Coli, iodopovidone gave a minimum bactericidal concentration of 2000 µM. Also, in the assay on C. albicans, the minimum fungicidal concentration worked out at 1000 µM.
